Experimental data from EP0537070A1, “Compositions containing compound TMK688 and its analogs” (TERUMO KABUSHIKI KAISHA, priority 1991, dated 1993).

Assay: Solubility in solvents (qualitative)
Format: physicochemical

solubility (in acetone): can easily be dissolved
solubility (in acetonitrile): can be well dissolved
solubility (in dichloroethane): can easily be dissolved
solubility (in ethanol): cannot be dissolved well
solubility (in water): can hardly be dissolved
SMILES: CCOC(=O)Oc1ccc(/C=C/C=C/C(=O)NCCN2CCC(OC(c3ccccc3)c3ccccc3)CC2)cc1OC [TMK 688]
